Measurements reported in PMC4203769, “The “Genomic Storm” Induced by Bacterial Endotoxin Is Calmed by a Nuclear Transport Modifier That Attenuates Localized and Systemic Inflammation” (PLoS ONE, 2014).
Where “and” joins values, the source holds several entries; their conditions need not be identical. Equal entries are not always repeated. Entries after “also recorded” stand apart in the source; their conditions may differ. Positions of bridges follow the written chain, without caps; N, C: chain ends. Residues, ends and D or L forms follow the SMILES beside them.

How the values were obtained:
[1] = Solubility of peptides in water; format: physicochemical
Excerpt: A fragment-linked peptide strategy to analyze signal-dependent nuclear transport is based on fusing a motif from the nuclear localization sequence (NLS) region of the NF-κB1/p50 subunit with the signal sequence hydrophobic region (SSHR) of human fibroblast growth factor 4 [7], [19]. NLS- and SSHR-containing NTMs (SN50, cSN50 and cSN50.1; see Table 1 for their composition and solubility) were designed to function at the nuclear transport level by binding to importins α during stimulus-initiated signaling and thereby modulate nuclear import of NLS-bearing SRTFs. The SSHR motif allows peptides to cross the plasma membrane of cells in culture or in experimental animals through an ATP- and endosome-independent mechanism. […] The functional utility of NTMs has been reported in numerous preclinical models of inflammation caused by microbial and autoimmune insults, [21]–[26].

[2] = tested on: primary macrophages challenged with LPS; experiment: Cell viability of LPS-challenged primary macrophages; format: cell-based, mouse (C57BL/6); conditions: LPS-challenged BMDMs, 30 µM peptide; data not shown; listed as NTM
[3] = tested on: mouse blood cells and organs; conditions: after i.p. injection; receptor- and endocytosis-independent mechanism; cited from earlier work
Experimental: NTM is rapidly delivered (within 30–60 min after i.p. injection) through a receptor-and endocytosis-independent mechanism to mouse blood cells and organs where it reaches sufficient intracellular concentration to engender localized (lung) and systemic (endotoxic shock) anti-inflammatory effects. Thus, the microvascular compartment of multiple organs that are vulnerable to LPS toxicity (e.g. lungs, liver, and kidneys) can be protected, [22]. Unlike anti-inflammatory glucocorticosteroids which produced discordant results in sepsis clinical trials, [33] and have potential ...

Structure (SMILES) | Solubility in Water [1] | effect on cell viability / cytotoxicity [2] | time to delivery to mouse blood cells and organs [3]
CSCC[C@@H]1NC(=O)[C@H](CC(C)C)NC(=O)[C@H](CCCCN)NC(=O)[C@H](CCC(N)=O)NC(=O)[C@H](CCCNC(=N)N)NC(=O)[C@H](CCCCN)NC(=O)[C@H](CCCNC(=N)N)NC(=O)[C@H](CCC(N)=O)NC(=O)[C@H](C(C)C)NC(=O)[C@H](Cc2ccc(O)cc2)NC(=O)[C@@H](NC(=O)[C@@H]2CCCN2C(=O)[C@H](C)NC(=O)[C@H](CC(C)C)NC(=O)[C@H](CC(C)C)NC(=O)[C@H](C)NC(=O)[C@H](CC(C)C)NC(=O)[C@H](CC(C)C)NC(=O)[C@@H](NC(=O)[C@H](C)NC(=O)[C@@H]2CCCN2C(=O)[C@H](CC(C)C)NC(=O)[C@H](CC(C)C)NC(=O)[C@H](C)NC(=O)[C@@H](NC(=O)[C@H](C)NC(=O)[C@H](C)N)C(C)C)C(C)C)CSSC[C@@H](C(=O)O)NC(=O)[C@@H]2CCCN2C1=O [cSN50, reference compound] (H-AAVALLPAVLLALLAPCYVQRKRQKLMPC-OH; disulfide 17-29) | 38 mg/mL and 12.1 mM |  | 
CSCC[C@@H]1NC(=O)[C@H](CC(C)C)NC(=O)[C@H](CCCCN)NC(=O)[C@H](CCC(N)=O)NC(=O)[C@H](CCCNC(=N)N)NC(=O)[C@H](CCCCN)NC(=O)[C@H](CCCNC(=N)N)NC(=O)[C@H](CCC(N)=O)NC(=O)[C@H](C(C)C)NC(=O)[C@@H](NC(=O)[C@@H]2CCCN2C(=O)[C@H](C)NC(=O)[C@H](CC(C)C)NC(=O)[C@H](CC(C)C)NC(=O)[C@H](C)NC(=O)[C@H](CC(C)C)NC(=O)[C@H](CC(C)C)NC(=O)[C@@H](NC(=O)[C@H](C)NC(=O)[C@@H]2CCCN2C(=O)[C@H](CC(C)C)NC(=O)[C@H](CC(C)C)NC(=O)[C@H](C)NC(=O)[C@@H](NC(=O)[C@H](C)NC(=O)[C@H](C)N)C(C)C)C(C)C)CSSC[C@@H](C(=O)O)NC(=O)[C@@H]2CCCN2C1=O [cSN50.1] (H-AAVALLPAVLLALLAPCVQRKRQKLMPC-OH; disulfide 17-28) | 100 mg/mL and 33.5 mM | without altering expression of housekeeping genes or being cytotoxic; also recorded: not associated with changes in cell viability | 30 to 60 min
